Results on one compound are retold here after ChEMBL document CHEMBL2384909, “Development of Novel Alkene Oxindole Derivatives As Orally Efficacious AMP-Activated Protein Kinase Activators” (ACS Med Chem Lett, 2013).

pIC50: −log10 of the molar value. Active and inactive are the calls of the source. The rule behind the calls is not given here.

Data set [1] addresses Voltage-gated inwardly rectifying potassium channel KCNH2 (Homo sapiens, UniProt Q12809). As to the kind of experiment: Inhibition of human ERG.
Data set [2] has as its target T1, Inhibitor of nuclear factor kappa-B kinase subunit beta (Homo sapiens) (UniProt O14920).
T1 sequence (whole entry): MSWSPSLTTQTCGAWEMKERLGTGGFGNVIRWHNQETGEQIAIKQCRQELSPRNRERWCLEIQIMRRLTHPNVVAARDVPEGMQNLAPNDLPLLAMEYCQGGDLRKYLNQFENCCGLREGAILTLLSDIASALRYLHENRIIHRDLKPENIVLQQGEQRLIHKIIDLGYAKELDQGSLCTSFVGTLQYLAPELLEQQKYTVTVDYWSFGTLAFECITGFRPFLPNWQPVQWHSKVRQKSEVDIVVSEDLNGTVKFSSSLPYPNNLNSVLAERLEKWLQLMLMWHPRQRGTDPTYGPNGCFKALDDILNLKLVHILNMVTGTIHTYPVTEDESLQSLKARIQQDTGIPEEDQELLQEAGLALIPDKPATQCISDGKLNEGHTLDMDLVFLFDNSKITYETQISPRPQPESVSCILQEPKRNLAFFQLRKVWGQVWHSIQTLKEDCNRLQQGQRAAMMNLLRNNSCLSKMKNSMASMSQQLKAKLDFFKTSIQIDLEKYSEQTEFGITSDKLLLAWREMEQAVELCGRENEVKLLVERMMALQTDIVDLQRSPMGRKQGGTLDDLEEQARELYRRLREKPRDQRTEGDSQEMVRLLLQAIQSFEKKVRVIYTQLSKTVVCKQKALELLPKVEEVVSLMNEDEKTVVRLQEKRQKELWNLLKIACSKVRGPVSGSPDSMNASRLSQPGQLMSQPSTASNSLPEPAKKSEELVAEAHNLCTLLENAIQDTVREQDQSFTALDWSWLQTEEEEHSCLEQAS
The experiment in a line: Activity at IKKbeta (unknown origin).

Another data set relates to Liver microsomes. As to the kind of experiment: Drug metabolism in rat liver microsomes. Type of data set: ADME, Microsome.
Data set [3] is described as follows: Plasma concentration in Wistar rat at 10 mg/kg, po after 4 hrs by LC-MS/MS analysis. In kind it is ADME, organism-based. Also noted: dose 10 mg/kg, route oral.
In data set [4] the test system is Mus musculus. As to the kind of experiment: Antidiabetic activity in diet-induced obese C57BL/6J mouse assessed as reduction in plasma triglyceride at 15 mg/kg, po qd for 4 weeks (reference value: 0.62 +/- 0.02 mM). Type of data set: functional.
Data set [5] concerns Mus musculus. As to the kind of experiment: Upregulation of CPT2 gene expression in C57BL/6J mouse muscles at 15 to 150 mg/kg, po. In kind it is functional, organism-based. As to conditions: Muscle tissue.
In data set [6] the target is AMPK alpha2/beta1/gamma1 (Homo sapiens) (UniProt P54646+P54619+Q9Y478). As to the kind of experiment: Activation of recombinant AMPK alpha2beta1gamma1 (unknown origin) at 20 ug/mL after 2 hrs by scintillation proximity assay relative to AMP. In kind it is protein-complex assay. (In general: In a scintillation proximity assay essentially only radioactivity close to the scintillant gives light.)

Data set [7] deals with L6. The experiment in a line: Induction of AMPK phosphorylation in rat L6 cells by Western blotting analysis. Type of data set: cell-based.
Data set [8] has as its system L6. As to the kind of experiment: Induction of AMPK-mediated ACC phosphorylation in rat L6 cells by Western blotting analysis. Type of data set: cell-based.
Data set [9] addresses Glycogen synthase kinase-3 beta (Homo sapiens) (UniProt P49841). As to the kind of experiment: Activity at GSK3beta (unknown origin).
For data set [10], the target named is T2, Aurora kinase A (Homo sapiens) (UniProt O14965).
T2 sequence (whole entry): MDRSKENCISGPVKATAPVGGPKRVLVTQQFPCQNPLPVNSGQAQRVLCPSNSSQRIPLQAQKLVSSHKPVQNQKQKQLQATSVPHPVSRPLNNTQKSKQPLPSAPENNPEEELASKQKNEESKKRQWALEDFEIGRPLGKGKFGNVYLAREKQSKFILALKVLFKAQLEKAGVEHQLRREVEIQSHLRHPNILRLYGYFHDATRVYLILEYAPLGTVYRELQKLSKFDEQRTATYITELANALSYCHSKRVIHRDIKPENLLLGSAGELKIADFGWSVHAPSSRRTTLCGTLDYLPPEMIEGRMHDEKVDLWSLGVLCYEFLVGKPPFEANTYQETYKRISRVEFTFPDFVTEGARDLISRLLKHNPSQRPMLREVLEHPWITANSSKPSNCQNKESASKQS
The experiment in a line: Activity at Aurora A (unknown origin).

The nature of data set [11]: Oral bioavailability in Wistar rat at 10 mg/kg by LC-MS/MS analysis. To be noted: in vivo. Type of data set: ADME, organism-based.
Data set [12] deals with Mus musculus. As to the kind of experiment: Antidiabetic activity in diet-induced obese C57BL/6J mouse assessed as reduction in plasma triglyceride at 150 mg/kg, po qd for 4 weeks (reference value: 0.62 +/- 0.02 mM). In kind it is functional.
A short description of data set [13]: Drug metabolism in mouse liver microsomes. Type of data set: ADME, Microsome.
For data set [14], the system named is Mus musculus. The experiment in a line: Upregulation of UCP2 gene expression in C57BL/6J mouse muscles at 15 to 150 mg/kg, po. As to conditions: Muscle tissue. In kind it is functional, organism-based.

Voltage-gated inwardly rectifying potassium channel KCNH2, sequence (Q12809 whole entry): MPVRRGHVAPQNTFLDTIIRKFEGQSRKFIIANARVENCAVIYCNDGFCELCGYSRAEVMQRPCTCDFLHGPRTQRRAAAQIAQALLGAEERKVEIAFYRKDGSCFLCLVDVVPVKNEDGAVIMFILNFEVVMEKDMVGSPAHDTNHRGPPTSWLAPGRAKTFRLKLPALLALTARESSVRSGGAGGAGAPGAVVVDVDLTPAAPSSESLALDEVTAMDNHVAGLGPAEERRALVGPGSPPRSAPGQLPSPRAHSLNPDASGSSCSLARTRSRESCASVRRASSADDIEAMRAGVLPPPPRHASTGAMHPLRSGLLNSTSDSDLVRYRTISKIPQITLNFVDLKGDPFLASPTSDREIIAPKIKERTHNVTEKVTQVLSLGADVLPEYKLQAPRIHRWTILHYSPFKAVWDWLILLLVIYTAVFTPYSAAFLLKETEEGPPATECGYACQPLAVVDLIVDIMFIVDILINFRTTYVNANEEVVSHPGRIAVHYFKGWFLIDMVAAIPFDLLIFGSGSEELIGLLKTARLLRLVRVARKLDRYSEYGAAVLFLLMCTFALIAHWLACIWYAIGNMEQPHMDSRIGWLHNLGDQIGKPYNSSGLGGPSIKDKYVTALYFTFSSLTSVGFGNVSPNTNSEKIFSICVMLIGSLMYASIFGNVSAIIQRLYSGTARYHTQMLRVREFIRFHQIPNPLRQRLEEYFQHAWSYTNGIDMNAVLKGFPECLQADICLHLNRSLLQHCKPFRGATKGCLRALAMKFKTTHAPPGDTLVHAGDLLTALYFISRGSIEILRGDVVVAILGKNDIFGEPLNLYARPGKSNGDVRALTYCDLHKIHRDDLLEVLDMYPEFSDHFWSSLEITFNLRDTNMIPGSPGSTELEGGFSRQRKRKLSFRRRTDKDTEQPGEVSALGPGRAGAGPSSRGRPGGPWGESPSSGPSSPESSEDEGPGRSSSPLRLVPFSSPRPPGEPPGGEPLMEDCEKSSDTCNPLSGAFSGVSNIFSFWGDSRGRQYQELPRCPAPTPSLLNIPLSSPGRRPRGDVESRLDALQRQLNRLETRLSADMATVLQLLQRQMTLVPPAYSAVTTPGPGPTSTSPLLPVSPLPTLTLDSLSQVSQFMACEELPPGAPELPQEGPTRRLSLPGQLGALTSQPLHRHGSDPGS
Glycogen synthase kinase-3 beta (Homo sapiens), sequence (P49841 whole entry, looked up): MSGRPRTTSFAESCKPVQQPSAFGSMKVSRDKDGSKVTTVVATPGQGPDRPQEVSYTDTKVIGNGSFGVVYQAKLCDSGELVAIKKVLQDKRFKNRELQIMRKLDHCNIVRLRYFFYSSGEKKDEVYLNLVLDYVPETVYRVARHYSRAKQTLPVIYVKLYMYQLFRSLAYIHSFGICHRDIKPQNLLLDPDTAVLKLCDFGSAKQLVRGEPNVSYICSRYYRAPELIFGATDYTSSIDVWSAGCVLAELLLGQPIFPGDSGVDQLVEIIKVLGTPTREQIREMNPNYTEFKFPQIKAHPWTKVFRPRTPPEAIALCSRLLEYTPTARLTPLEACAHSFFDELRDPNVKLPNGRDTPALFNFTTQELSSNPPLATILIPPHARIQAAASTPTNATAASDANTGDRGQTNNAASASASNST
AMPK alpha2/beta1/gamma1 (Homo sapiens), sequence (P54619 whole entry partner): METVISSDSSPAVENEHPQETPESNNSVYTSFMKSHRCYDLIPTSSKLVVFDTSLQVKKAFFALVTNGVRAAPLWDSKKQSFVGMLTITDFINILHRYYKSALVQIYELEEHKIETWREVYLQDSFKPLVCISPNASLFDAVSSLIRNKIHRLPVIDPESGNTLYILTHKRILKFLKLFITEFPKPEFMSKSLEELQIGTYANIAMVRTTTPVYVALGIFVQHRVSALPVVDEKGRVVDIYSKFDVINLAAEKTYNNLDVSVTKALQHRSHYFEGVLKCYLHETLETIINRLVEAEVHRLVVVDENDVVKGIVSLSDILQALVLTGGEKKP
AMPK alpha2/beta1/gamma1 (Homo sapiens), sequence (P54646 whole entry): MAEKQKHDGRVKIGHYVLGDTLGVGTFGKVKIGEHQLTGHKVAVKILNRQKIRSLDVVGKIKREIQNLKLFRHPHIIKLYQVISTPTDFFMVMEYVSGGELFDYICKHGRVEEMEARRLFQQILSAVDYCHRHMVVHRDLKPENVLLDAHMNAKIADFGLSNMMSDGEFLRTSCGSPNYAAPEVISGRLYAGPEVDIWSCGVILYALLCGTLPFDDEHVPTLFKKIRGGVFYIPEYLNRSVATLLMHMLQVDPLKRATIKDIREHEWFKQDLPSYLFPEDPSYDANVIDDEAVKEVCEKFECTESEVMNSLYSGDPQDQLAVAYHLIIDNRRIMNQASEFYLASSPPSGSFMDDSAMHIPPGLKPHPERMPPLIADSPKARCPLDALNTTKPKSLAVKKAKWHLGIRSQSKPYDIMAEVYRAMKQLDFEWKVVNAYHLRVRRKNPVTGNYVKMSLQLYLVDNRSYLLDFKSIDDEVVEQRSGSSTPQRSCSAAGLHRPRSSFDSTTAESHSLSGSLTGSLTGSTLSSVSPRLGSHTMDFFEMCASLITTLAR
AMPK alpha2/beta1/gamma1 (Homo sapiens), sequence (Q9Y478 2-270 partner limits assumed): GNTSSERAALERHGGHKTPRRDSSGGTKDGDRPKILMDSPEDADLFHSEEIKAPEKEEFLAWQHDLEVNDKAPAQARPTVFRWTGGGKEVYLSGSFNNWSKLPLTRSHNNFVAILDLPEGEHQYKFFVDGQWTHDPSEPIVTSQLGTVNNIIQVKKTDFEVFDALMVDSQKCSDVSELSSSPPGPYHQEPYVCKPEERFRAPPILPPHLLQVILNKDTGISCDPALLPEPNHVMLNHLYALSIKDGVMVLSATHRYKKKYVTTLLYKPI

For the compound `O=C(O)c1cccc(CN2C(=O)/C(=C(\c3ccccc3)c3ccc(Cl)cc3)c3ccccc32)c1`, the negative logarithm of the IC50 (pIC50) (as a rule, the negative decadic logarithm of the IC50, by convention in mol/L) in data set [1] is less than 4.70. Moreover, the result in data set [2], in data set [9] and in data set [10] was inactive. For the same compound, the Drug metabolism entry (in the data set on Liver microsomes; in [13]) was “Not Active” each time. In [3], this compound yielded a concentration at 4 h of 3270 ng/mL. Further, the Activity with Mus musculus [4] was 0.52 mM; with L6 [7], “Dose-dependent effect”; in the data set with L6 [8], “Dose-dependent effect”; with Mus musculus [12], 0.54 mM. Moreover, the result in the data set on Mus musculus [5] and in the data set with Mus musculus [14] was Active. The Efficacy in data set [6] came to 110%. Moreover, in data set [11], the bioavailability (commonly dose-corrected exposure relative to a reference, in per cent) came to 33.7%.
